pIC50: −log10 of the molar value.
Experiments:
[1] = molecular target: T1, human Cereblon WT GST-tagged protein (Homo sapiens, UniProt Q96SW2); test: CRBN-binding affinity, HTRF (CEREBLON BINDING kit); conditions: displacement of Thalidomide-Re reagent, 3 hours at room temperature
T1 construct: purchased CISBIO 64BDCRBNPEH
How it was run: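 Compounds displace a thalidomide-Re tracer from GST-tagged human Cereblon WT, detected with an Eu-labelled anti-GST antibody by time-resolved fluorescence. Signal at 620 nm was normalised against solvent and blank controls.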

IKZF3 = molecular target: T2, IKZF3 (Homo sapiens, UniProt Q96SW2+Q9UKT9); test: Western-blot assay, substrate protein in hPBMCs; type: cell-based; conditions: hPBMC cells, 24 hours, tested at 50 nM and 500 nM, table does not say which
T2 construct: endogenous in cells; host or cells: human PBMCs (Milecell Biotechnologies)
How it was run: (§1)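 hPBMCs (1×10^6 cells/mL) exposed 24 h to compound at 50 nM and 500 nM, lysed, and probed by Western blot. Band grayscale normalized to internal control gives % protein remaining versus DMSO; DC50 from concentration-response fit at half DMSO band intensity.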

IKZF1 = molecular target: T3, IKZF1 (Homo sapiens, UniProt Q13422+Q96SW2); test: Western-blot assay, substrate protein in hPBMCs; type: cell-based; conditions: hPBMC cells, 24 hours, tested at 50 nM and 500 nM, table does not say which
T3 construct: endogenous in cells; host or cells: human PBMCs (Milecell Biotechnologies)
How it was run: as §1

IKZF2 = molecular target: T4, IKZF2 (Homo sapiens, UniProt Q96SW2+Q9UKS7); test: Western-blot assay, substrate protein in hPBMCs; type: cell-based; conditions: hPBMC cells, 24 hours, tested at 50 nM and 500 nM, table does not say which
T4 construct: endogenous in cells; host or cells: human PBMCs (Milecell Biotechnologies)
How it was run: (§2)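 Thawed hPBMCs, 1×10^6 cells/mL; 24 h compound; RIPA + phosphatase inhibitor lysis, BCA-normalised loading, SDS-PAGE, NC transfer, immunodetection. Bands vs internal control → % remaining; DC50 = concentration at 50% of DMSO band intensity.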

CK1α = molecular target: T5, CK1α (Homo sapiens, UniProt P48729+Q96SW2); test: Western-blot assay, substrate protein in hPBMCs; type: cell-based; conditions: hPBMC cells, 24 hours, tested at 50 nM and 500 nM, table does not say which
T5 construct: endogenous in cells; host or cells: human PBMCs (Milecell Biotechnologies)
How it was run: as §2

GSPT1 = molecular target: T6, GSPT1 (Homo sapiens, UniProt P15170+Q96SW2); test: Western-blot assay, substrate protein in hPBMCs; type: cell-based; conditions: hPBMC cells, 24 hours, tested at 50 nM and 500 nM, table does not say which
T6 construct: endogenous in cells; host or cells: human PBMCs (Milecell Biotechnologies)
How it was run: as §2

JEKO-1 = test: Half inhibitory concentration (IC50) against tumor cells, Cell Counting Kit-8; type: cell-based; conditions: Homo sapiens, CCK-8, 96 h treatment, read-out: inhibitory activity (IC50, nM) against tumor cells proliferation
Protocol: (§3) The tumor cells used herein were cultured in a cell culture medium listed in table A at 37° C. in an incubator with 5% CO2.
(§4) After the cells were treated with the compounds of the present disclosure for a period of time, the cell viability detection reagent was added to the culture medium for cell viability assessment according to the instructions provided with the CCK-8 kit. […] The growth inhibition of the compounds of the present disclosure on cells was plotted by Prism Graphpad software, and the IC50 values of the compounds of the present disclosure were calculated therefrom.

MDA-MB-231 = test: as above; type: cell-based; conditions: Homo sapiens, CCK-8, 96 h treatment, read-out: inhibitory activity (IC50, nM) against tumor cells proliferation
Protocol: as §3, §4

CCRF-CEM = test: as above; type: cell-based; conditions: Homo sapiens, CCK-8, 96 h treatment, read-out: inhibitory activity (IC50, nM) against tumor cells proliferation
Protocol: as §3, §4

Kasumi-1 = test: as above; type: cell-based; conditions: Homo sapiens, CCK-8, 96 h treatment, read-out: inhibitory activity (IC50, nM) against tumor cells proliferation
Protocol: as §3, §4

MM.1S = test: as above; type: cell-based; conditions: Homo sapiens, MM1.S, CCK-8, 96 h treatment, read-out: inhibitory activity (IC50, nM) against tumor cells proliferation
Protocol: as §3, §4

Daudi = test: as above; type: cell-based; conditions: Homo sapiens, CCK-8, 96 h treatment, read-out: inhibitory activity (IC50, nM) against tumor cells proliferation
Protocol: as §3, §4

CAL-62 = test: as above; type: cell-based; conditions: Homo sapiens, CCK-8, 96 h treatment, read-out: inhibitory activity (IC50, nM) against tumor cells proliferation
Protocol: as §3, §4

MV-4-11 = test: as above; type: cell-based; conditions: Homo sapiens, MV4-11, CCK-8, 96 h treatment, read-out: inhibitory activity (IC50, nM) against tumor cells proliferation
Protocol: as §3, §4

THP-1 = test: as above; type: cell-based; conditions: Homo sapiens, CCK-8, 96 h treatment, read-out: inhibitory activity (IC50, nM) against tumor cells proliferation
Protocol: as §3, §4

MM.1R = test: as above; type: cell-based; conditions: Homo sapiens, CCK-8, 96 h treatment, read-out: inhibitory activity (IC50, nM) against tumor cells proliferation
Protocol: as §3, §4

T2 sequence (Q9UKT9 whole entry): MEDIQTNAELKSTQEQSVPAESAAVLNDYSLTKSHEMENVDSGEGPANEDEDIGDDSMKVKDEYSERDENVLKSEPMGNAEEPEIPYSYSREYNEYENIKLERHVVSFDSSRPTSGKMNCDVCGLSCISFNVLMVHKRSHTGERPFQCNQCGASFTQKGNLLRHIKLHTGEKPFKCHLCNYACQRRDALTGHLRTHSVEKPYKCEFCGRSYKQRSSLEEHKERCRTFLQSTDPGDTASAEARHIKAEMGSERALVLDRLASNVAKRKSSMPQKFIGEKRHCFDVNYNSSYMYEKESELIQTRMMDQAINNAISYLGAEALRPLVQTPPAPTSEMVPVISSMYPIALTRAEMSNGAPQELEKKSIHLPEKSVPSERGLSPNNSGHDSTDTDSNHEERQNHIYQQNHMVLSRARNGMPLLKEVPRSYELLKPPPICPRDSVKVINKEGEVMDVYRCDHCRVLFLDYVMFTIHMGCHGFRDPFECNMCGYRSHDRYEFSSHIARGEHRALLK
T2 sequence (Q96SW2 whole entry): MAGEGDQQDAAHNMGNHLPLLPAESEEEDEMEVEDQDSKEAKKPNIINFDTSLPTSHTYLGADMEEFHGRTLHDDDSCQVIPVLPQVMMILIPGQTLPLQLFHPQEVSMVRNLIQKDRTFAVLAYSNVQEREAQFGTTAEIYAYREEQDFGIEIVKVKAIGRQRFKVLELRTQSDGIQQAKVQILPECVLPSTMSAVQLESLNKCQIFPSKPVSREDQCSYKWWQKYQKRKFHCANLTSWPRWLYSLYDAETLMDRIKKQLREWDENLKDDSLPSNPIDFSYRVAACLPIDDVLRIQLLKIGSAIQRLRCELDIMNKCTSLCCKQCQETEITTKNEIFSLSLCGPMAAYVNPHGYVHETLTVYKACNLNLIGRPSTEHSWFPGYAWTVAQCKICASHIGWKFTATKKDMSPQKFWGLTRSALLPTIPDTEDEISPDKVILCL
T2 sequence (Q16531 whole entry partner): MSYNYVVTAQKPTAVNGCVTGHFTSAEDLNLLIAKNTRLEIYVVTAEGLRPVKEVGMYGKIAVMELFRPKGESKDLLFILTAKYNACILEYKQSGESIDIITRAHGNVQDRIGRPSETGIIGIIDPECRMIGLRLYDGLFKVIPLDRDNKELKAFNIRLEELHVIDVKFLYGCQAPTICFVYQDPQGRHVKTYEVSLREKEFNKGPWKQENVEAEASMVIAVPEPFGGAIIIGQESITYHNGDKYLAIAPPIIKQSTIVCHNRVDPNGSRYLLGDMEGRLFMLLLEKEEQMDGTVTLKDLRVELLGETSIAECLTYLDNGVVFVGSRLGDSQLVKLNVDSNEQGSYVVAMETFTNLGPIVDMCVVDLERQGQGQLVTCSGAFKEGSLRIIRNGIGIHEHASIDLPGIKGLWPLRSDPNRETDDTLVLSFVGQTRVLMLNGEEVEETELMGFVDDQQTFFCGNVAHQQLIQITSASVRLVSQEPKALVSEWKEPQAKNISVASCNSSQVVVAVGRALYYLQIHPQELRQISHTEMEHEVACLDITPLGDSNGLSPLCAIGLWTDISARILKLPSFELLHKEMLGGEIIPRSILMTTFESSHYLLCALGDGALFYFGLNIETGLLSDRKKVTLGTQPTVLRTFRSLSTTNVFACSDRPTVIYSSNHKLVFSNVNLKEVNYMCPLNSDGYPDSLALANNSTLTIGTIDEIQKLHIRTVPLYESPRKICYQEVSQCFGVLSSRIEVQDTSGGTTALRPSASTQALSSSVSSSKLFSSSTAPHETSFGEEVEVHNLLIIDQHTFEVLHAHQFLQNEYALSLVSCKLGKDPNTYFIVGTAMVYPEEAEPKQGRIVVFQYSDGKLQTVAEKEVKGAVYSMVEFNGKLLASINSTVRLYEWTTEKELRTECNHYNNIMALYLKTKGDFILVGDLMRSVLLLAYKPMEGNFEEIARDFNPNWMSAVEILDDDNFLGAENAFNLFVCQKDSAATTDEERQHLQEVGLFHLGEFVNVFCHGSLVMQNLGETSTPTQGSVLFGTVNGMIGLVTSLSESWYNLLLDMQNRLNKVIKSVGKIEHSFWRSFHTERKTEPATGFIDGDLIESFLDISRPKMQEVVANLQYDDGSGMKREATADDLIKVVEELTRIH
T5 sequence (P48729 whole entry): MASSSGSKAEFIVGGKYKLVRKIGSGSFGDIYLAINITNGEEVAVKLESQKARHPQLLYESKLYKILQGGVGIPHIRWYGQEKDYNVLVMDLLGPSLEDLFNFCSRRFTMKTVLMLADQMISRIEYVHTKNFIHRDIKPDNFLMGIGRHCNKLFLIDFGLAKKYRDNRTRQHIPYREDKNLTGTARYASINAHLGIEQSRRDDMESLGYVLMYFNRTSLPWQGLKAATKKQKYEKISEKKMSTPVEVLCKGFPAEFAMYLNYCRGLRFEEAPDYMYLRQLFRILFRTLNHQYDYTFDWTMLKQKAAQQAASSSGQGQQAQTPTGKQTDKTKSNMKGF
T5 sequence (Q96SW2 whole entry): as the sequence (Q96SW2 whole entry) above
T5 sequence (Q16531 whole entry partner): as the sequence (Q16531 whole entry partner) above
T6 sequence (P15170 whole entry): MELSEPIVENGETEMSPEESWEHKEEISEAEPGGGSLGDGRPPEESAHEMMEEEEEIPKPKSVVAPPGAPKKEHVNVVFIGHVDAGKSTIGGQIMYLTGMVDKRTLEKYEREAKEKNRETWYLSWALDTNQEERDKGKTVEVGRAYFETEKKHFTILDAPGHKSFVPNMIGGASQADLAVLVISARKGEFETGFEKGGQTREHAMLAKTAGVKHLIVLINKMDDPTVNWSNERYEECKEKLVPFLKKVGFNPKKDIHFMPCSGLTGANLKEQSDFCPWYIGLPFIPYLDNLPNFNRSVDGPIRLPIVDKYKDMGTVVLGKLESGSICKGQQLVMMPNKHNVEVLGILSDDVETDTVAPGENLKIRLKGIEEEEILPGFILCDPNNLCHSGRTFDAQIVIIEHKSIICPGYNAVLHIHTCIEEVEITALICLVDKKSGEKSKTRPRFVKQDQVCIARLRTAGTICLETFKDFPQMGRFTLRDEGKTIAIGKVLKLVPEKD
T6 sequence (Q96SW2 whole entry): as the sequence (Q96SW2 whole entry) above
T6 sequence (Q16531 whole entry partner): as the sequence (Q16531 whole entry partner) above
T4 sequence (Q9UKS7 whole entry): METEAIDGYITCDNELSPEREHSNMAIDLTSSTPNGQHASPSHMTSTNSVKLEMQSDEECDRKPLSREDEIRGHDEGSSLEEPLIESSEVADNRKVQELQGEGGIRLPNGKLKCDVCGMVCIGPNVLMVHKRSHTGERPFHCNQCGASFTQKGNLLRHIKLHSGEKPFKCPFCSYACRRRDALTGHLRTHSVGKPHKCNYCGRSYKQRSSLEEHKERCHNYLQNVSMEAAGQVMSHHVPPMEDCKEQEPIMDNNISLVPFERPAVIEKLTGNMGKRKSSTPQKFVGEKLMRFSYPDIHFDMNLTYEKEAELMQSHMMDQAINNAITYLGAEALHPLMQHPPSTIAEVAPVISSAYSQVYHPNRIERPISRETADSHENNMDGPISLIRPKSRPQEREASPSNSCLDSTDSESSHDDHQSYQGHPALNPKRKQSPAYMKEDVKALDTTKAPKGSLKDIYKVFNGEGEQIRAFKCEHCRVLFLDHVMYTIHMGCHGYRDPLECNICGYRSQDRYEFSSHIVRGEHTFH
T4 sequence (Q96SW2 whole entry): as the sequence (Q96SW2 whole entry) above
T4 sequence (Q16531 whole entry partner): as the sequence (Q16531 whole entry partner) above
T1 sequence (Q96SW2 whole entry): as the sequence (Q96SW2 whole entry) above
T3 sequence (Q13422 whole entry): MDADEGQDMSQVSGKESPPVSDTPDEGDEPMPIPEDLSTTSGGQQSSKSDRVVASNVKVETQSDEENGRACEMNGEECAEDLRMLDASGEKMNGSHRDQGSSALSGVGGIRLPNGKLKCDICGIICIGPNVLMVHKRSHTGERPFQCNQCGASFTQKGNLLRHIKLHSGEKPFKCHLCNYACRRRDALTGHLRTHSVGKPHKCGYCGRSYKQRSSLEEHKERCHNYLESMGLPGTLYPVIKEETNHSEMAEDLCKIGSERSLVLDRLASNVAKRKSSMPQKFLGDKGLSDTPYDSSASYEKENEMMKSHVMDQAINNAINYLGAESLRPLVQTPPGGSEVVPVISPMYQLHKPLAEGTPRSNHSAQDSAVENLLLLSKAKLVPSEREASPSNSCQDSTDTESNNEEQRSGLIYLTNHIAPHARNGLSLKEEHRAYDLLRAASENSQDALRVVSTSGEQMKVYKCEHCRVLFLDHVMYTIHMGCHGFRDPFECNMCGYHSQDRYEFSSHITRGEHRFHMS
T3 sequence (Q96SW2 whole entry): as the sequence (Q96SW2 whole entry) above
T3 sequence (Q16531 whole entry partner): as the sequence (Q16531 whole entry partner) above

pIC50 [1]: > 6.30
IC50 (JEKO-1): 100 to 500 nM
IC50 (MDA-MB-231): 100 to 500 nM
IC50 (CCRF-CEM): 50 to 100 nM
IC50 (Kasumi-1): 100 to 500 nM
IC50 (MM.1S): 100 to 500 nM
IC50 (Daudi): < 1 nM
IC50 (CAL-62): 50 to 100 nM
IC50 (MV-4-11): 100 to 500 nM
IC50 (THP-1): 10 to 50 nM
IC50 (MM.1R): 50 to 100 nM
Structure (SMILES): O=C1CCC(N2Cc3cc(SC4CN(Cc5ccccc5-c5ccc(Cl)cc5)C4)ccc3C2=O)C(=O)N1 (stereo not shown) [GT-03360, 3-(5-((1-((4′-chloro-[1,1′-biphenyl]-2-yl)methyl)azetidin-3-yl)thio)-1-oxoisoindolin-2-yl)piperidine-2,6-dione]
substrate protein remaining % (IKZF3): A (0%≤ substrate protein remaining % ≤80%)
substrate protein remaining % (IKZF1): A (0%≤ substrate protein remaining % ≤80%)
substrate protein remaining % (IKZF2): A (0%≤ substrate protein remaining % ≤80%)
substrate protein remaining % (CK1α): A (0%≤ substrate protein remaining % ≤80%)
substrate protein remaining % (GSPT1): A (0%≤ substrate protein remaining % ≤80%)

From patent publication US20260207578A1, “COMPOUND BASED ON SULFUR/OXYGEN SUBSTITUTED GLUTARIMIDE-BASED ISOINDOLINONE SKELETON AND USE THEREOF” (Gluetacs Therapeutics (Shanghai) Co., LTD., priority 2022, published 2026)
